Broadly, the IC50 is the concentration that gives 50% inhibition. A word on the melting point: it is the temperature, or range, at which the solid turns liquid.

Structures can show the parent of a compound that is named as a salt. Where only a bound is given, the exact number is not on record here.

These results are taken from US20220144853A1, “IMIDAZOLINE DERIVATIVES AS CXCR4 MODULATORS” (Université de Paris, priority 2019, published 2022).

The subject of the first data set is IFN production by activated PBMCs. Nature of the data set: IFN production by R848-activated PBMCs from healthy donors, twINNE reporter cell line. In kind it is cell-based, human. The following applies: Homo sapiens, PBMC, means of two results over 2 healthy donors, R848 5 μg/mL, IT1t: mean over all experiments, read-out: IC50 of anti-inflammatory activity (IFN production). As to the method:
2) The blood from healthy donors was also obtained from “Etablissement Français du Sang” (convention #19/EFS/029), Paris, France.
In vitro experiments were performed using human peripheral blood mononuclear cells (PBMCs) isolated by density centrifugation from peripheral blood leukocyte separation medium, lymphoprep (Stemcell Technologies).
PBMCs were cultured in RPMI 1640 (Sigma-Aldrich, MO, USA) containing 10% heat-inactivated fetal bovine serum (Sigma-Aldrich, MO, USA) at 37° C./5% CO2.
2) The PBMCs used herein were prepared as described in part A “immune cells preparation”, section 2) above. PBMCs were seeded at 4.10^6/mL. […] Cells were then stimulated with the TLR7/8 agonist resiquimod—R848 (Sigma-Aldrich, MO, USA) at 5 μg/mL.
2) To quantify the secretion of functional IFN, a biological assay based on a stable cell line where luciferase reporter gene is controlled by five Interferon-Stimulated Response Elements (twINNE cell line) was used. It is important to note that the twINNE cell line is the same as the above mentioned STING-37 cell line but with constitutively expressed nanoluciferase. First, supernatants of R848-stimulated PBMCs (see part B, section 2) above) were harvested after 24 h of stimulation and frozen at −20° C. for storage. Then, supernatants were dispensed in culture wells of a 96-well plate containing 35.103 twINNE cells per well in Dulbecco's Modified Eagle's Medium supplemented with 10% Foetal Bovine Serum, 100 U/mL Penicillin and 100 μg/mL Streptomycin (1% Pen-Strep) and 1 mM glutamine (Sigma-Aldrich, MO, USA) at 37° C./5% […]. After 24 h of culture, luciferase activity was determined by adding 60 μL of Bright-Go reagents (Promega, Wisconsin, USA) to culture wells and measuring bioluminescence with EnSpire Multimode Plate Reader (PerkinElmer, Massachusetts, USA). When stated, for IC50 calculation, dose-response curves fitted using the nonlin fit (variable slope) analysis in GraphPad Prism software (GraphPad Software, California, USA).
In the case of `C1=C(CSC2=N[C@@H]3CCCC[C@H]3N2)N2CCN=C2S1` [Example 44, 3-((((3aR,7aR)-3a,4,5,6,7,7a-hexahydro-1H-benzo[d]imidazol-2-yl)thio)methyl)-5,6-dihydroimidazo[2,1-b]thiazole dihydrochloride], the IC50 was at most 10 µM. `CC1(C)CN2C(CSC3=NCC4CCCCC4N3)=CSC2=N1` (stereo not shown) [Example 40, 6,6-dimethyl-3-(((1,4,4a,5,6,7,8,8a-octahydroquinazolin-2-yl)thio)methyl)-5,6-dihydroimidazo[2,1-b]thiazole dihydrochloride]: the IC50 is at least 31 µM.

Take `CCCCC1CN=C(SCC2=CSC3=N[C@H]4CCCCC4N23)N1` (mixture of isomers) [Example 54, trans-3-(((5-butyl-4,5-dihydro-1H-imidazol-2-yl)thio)methyl)-4a,5,6,7,8,8a-hexahydrobenzo[4,5]imidazo[2,1-b]thiazole dihydrochloride]: the IC50 is at most 10 µM. With `c1ccc(CC2CN=C(SCCCc3ccc4c(n3)NCCC4)N2)cc1` (stereo not shown) [Example 68, 7-(3-((5-benzyl-4,5-dihydro-1H-imidazol-2-yl)thio)propyl)-1,2,3,4-tetrahydro-1,8-naphthyridine dihydrochloride], the IC50 lay within 10 to 31 µM. Take `CCCCC1CN=C(SCC2=CSC3=NC(C)(C)CN23)N1` (stereo not shown) [Example 13, 3-(((5-butyl-4,5-dihydro-1H-imidazol-2-yl)thio)methyl)-6,6-dimethyl-5,6-dihydroimidazo[2,1-b]thiazole dihydrochloride]: the concentration for half-maximal inhibition (IC50) is at most 10 µM. Still for that read-out and setting: then `CC1(C)CN2C(CSC3=NCCCN3)=CSC2=N1` [Example 9, 6,6-dimethyl-3-(((1,4,5,6-tetrahydropyrimidin-2-yl)thio)methyl)-5,6-dihydroimidazo[2,1-b]thiazole dihydrochloride], with at least 31 µM.

System in a further data set: not given
Test: not given
Conditions: not given
On to `CC1(C)CN=C(SCC2=CSC3=NCCCN23)N1` (as salt: hydrochloride) [Example 14, 3-(((5,5-dimethyl-4,5-dihydro-1H-imidazol-2-yl)thio)methyl)-6,7-dihydro-5H-thiazolo[3,2-a]pyrimidine dihydrochloride], for which the melting point is 242 to 245 °C. The compound `CN1CCCN=C1SCC1=CSC2=NC(C)(C)CN12` (as salt: hydrochloride) [Example 57, 6,6-dimethyl-3-(((1-methyl-1,4,5,6-tetrahydropyrimidin-2-yl)thio)methyl)-5,6-dihydroimidazo[2,1-b]thiazole dihydrochloride] came in with a melting point of 245 to 249 °C. Still for that read-out and setting: under `CC(C)C1CN2C(CSC3=NCC(C)(C)N3)=CSC2=N1` (stereo not shown) (as salt: hydrochloride) [Example 52, 3-(((5,5-dimethyl-4,5-dihydro-1H-imidazol-2-yl)thio)methyl)-6-isopropyl-5,6-dihydroimidazo[2,1-b]thiazole dihydrochloride] stands 227 to 232 °C; under `CC1(C)CN=C(SCC2=CSC3=N[C@H]4CCCC[C@@H]4N23)N1` (racemic) (as salt: hydrochloride) [Example 7, trans-3-(((4,4-dimethyl-4,5-dihydro-1H-imidazol-2-yl)thio)methyl)-4a,5,6,7,8,8a-hexahydrobenzo[4,5]imidazo[2,1-b]thiazole dihydrochloride], 248 to 252 °C; under `CN1CCN=C1SCC1=CSC2=NC3CCCCC3N12` (racemic) (as salt: hydrochloride) [Example 63, trans-3-(((1-methyl-4,5-dihydro-1H-imidazol-2-yl)thio)methyl)-4a,5,6,7,8,8a-hexahydrobenzo[4,5]imidazo[2,1-b]thiazole dihydrochloride], 204 to 207 °C.

Turning to `CC1(C)CN2C(CSC3=N[C@@H]4CCC[C@@H](C4)N3)=CSC2=N1` (as salt: hydrochloride) [Example 22, 3-((((1R,5S)-2,4-diazabicyclo[3.3.1]non-2-en-3-yl)thio)methyl)-6,6-dimethyl-5,6-dihydroimidazo[2,1-b]thiazole dihydrochloride], the melting point was above 250 °C. On the same count and under the same terms, then `C1=C(CSC2=NCCCN2)N2CCN=C2S1` (as salt: hydrochloride) [Example 35, 3-(((1,4,5,6-tetrahydropyrimidin-2-yl)thio)methyl)-5,6-dihydroimidazo[2,1-b]thiazole dihydrochloride], with 100 to 102 °C. Same read-out and setting: under `CC1(C)CN2C(CSC3=NCC(Cc4ccccc4)N3)=CSC2=N1` (stereo not shown) (as salt: hydrochloride) [Example 17, 3-(((5-benzyl-4,5-dihydro-1H-imidazol-2-yl)thio)methyl)-6,6-dimethyl-5,6-dihydroimidazo[2,1-b]thiazole dihydrochloride] stands 83 to 103 °C; under `C1=C(CSC2=NCC(Cc3ccccc3)N2)N2CCCN=C2S1` (stereo not shown) (as salt: hydrochloride) [Example 48, 3-(((5-benzyl-4,5-dihydro-1H-imidazol-2-yl)thio)methyl)-6,7-dihydro-5H-thiazolo[3,2-a]pyrimidine dihydrochloride], 50 to 53 °C. On the same count and under the same terms, then `CC1(C)CN2C(CSC3=NCCN3)=CSC2=N1` (as salt: hydrochloride) [Example 8, 3-(((4,5-dihydro-1H-imidazol-2-yl)thio)methyl)-6,6-dimethyl-5,6-dihydroimidazo[2,1-b]thiazole dihydrochloride], with 140 to 144 °C. The compound `CC1(C)CN=C(SCC2=CSC3=NC4(CCCCC4)CN23)N1` (as salt: hydrochloride) [Example 42, 3′-(((5,5-dimethyl-4,5-dihydro-1H-imidazol-2-yl)thio)methyl)-5′H-spiro[cyclohexane-1,6′-imidazo[2,1-b]thiazole] dihydrochloride] yielded a melting point of 190 to 198 °C. Still for that read-out and setting: under `CCCCC1CN2C(CSC3=NCC(C)(C)N3)=CSC2=N1` (stereo not shown) (as salt: hydrochloride) [Example 19, 6-butyl-3-(((4,4-dimethyl-4,5-dihydro-1H-imidazol-2-yl)thio)methyl)-5,6-dihydroinidazo[2,1-b]thiazole dihydrochloride] stands 210 to 218 °C.

In turn, `CC1(C)CN=C(SCC2=CSC3=N[C@H]4CCCC(C4)N23)N1` (racemic) (as salt: hydrochloride) [Example 23, cis-3-(((5,5-dimethyl-4,5-dihydro-1H-imidazol-2-yl)thio)methyl)-6,7,8,9-tetrahydro-5H-5,9-methanothiazolo[3,2-a][1,3]diazocine dihydrochloride] yielded a melting point of 240 to 245 °C. For `CC1(C)CN2C(CSC3=NCC4(CCCCC4)N3)=CSC2=N1` (as salt: hydrochloride) [Example 39, 3-(((1,3-diazaspiro[4.5]dec-2-en-2-yl)thio)methyl)-6,6-dimethyl-5,6-dihydroimidazo[2,1-b]thiazole dihydrochloride], the melting point was 225 to 231 °C. For the compound `CC1(C)CN=C(SCC2=CSC3=NC4CCCCC4CN23)N1` (stereo not shown) (as salt: hydrochloride) [Example 43, 3-(((5,5-dimethyl-4,5-dihydro-1H-imidazol-2-yl)thio)methyl)-5a,6,7,8,9,9a-hexahydro-5H-thiazolo[2,3-b]quinazoline dihydrochloride], the melting point lay within 241 to 245 °C. Same read-out and setting: under `CC1(C)CN2C(CSC3=NC(C)(C)C(C)(C)N3)=CSC2=N1` (as salt: hydrochloride) [Example 16, 6,6-dimethyl-3-(((4,4,5,5-tetramethyl-4,5-dihydro-1H-imidazol-2-yl)thio)methyl)-5,6-dihydroimidazo[2,1-b]thiazole dihydrochloride] stands 185 to 205 °C; under `C1=C(CSC2=NCCCN2)N2CCCN=C2S1` (as salt: hydrochloride) [Example 29, 3-(((1,4,5,6-tetrahydropyrimidin-2-yl)thio)methyl)-6,7-dihydro-5H-thiazolo[3,2-a]pyrimidine dihydrochloride], above 250 °C; under `CC1(C)CN2C(CSC3=N[C@H]4COC[C@H]4N3)=CSC2=N1` (as salt: hydrochloride) [Example 25, (3aR,6aS)-2-(((6,6-dimethyl-5,6-dihydroinidazo[2,1-b]thiazol-3-yl)methyl)thio)-3a,4,6,6a-tetrahydro-1H-furo[3,4-d]imidazole dihydrochloride], above 250 °C.

In the case of `CC1(C)CN2C(=N1)SCC2SC1=NCC(C)(C)N1` (stereo not shown) (as salt: hydrochloride) [Example 70, 3-((5,5-dimethyl-4,5-dihydro-1H-imidazol-2-yl)thio)-6,6-dimethyl-2,3,5,6-tetrahydroimidazo[2,1-b]thiazole dihydrochloride], the melting point is 240 to 243 °C.
